# Conditions: rat; liver microsomes; pH 7.4; 15.0 min; 1.0 µM
row,SMILES,half-life [min]
1,Cc1ccc(S(=O)(=O)Nc2cnccc2C(=O)Nc2nc(-c3cccc(Cl)c3)cs2)cc1,> 30
2,O=C(Nc1ccc2oc(-c3cccnc3)nc2c1)c1ccc(-c2cccc(Cl)c2)o1,> 30
3,CCOC(=O)c1nc(Nc2ccc(N3CCC(C)CC3)cc2)c2ccccc2n1,1.62
4,Cc1ccc(S(=O)(=O)Nc2ccccc2C(=O)Nc2ccc(-c3ccccc3)cn2)cc1,4.9
5,CN(C)c1cccc(-c2ncnc(N3CCC(C(N)=O)CC3)n2)c1,5.7
6,CC(=O)c1c(C)c(C(=O)Nc2cccc([S+](=O)([O-])N3CCCCCC3)c2)n(C)c1C,1.4
7,C[C@@]12O[C@@H](C[C@]1(O)CO)n1c3ccccc3c3c4c(c5c6ccccc6n2c5c31)CNC4=O,> 30
8,Nc1cc(-c2nc(Nc3ccc(F)c(F)c3)c3ccccc3n2)ccn1,15
9,COc1ccc(CNc2ccc(S(=O)(=O)Nc3nccs3)cc2)c(O)c1,3.9
10,COc1c(O)ccc2c1CN1CCc3cc4c(cc3[C@@H]1C2)OCO4,18.9
11,COc1ccc(Nc2nc(-c3ccncc3)nc3ccccc23)cc1F,9.7
12,COc1ccc(NC(=O)c2c(C)cccc2C)cc1[S+](=O)([O-])N1CCCCCC1,1.8
13,COc1cccc(CNc2ccc(S(=O)(=O)Nc3cccc4ccccc34)cc2)c1O,5.8
14,CN(C)CCCn1cc(C2=C(c3c[nH]c4ccccc34)C(=O)NC2=O)c2ccccc21,10.5
15,CCc1ccc(-n2c(=O)c3cccnc3n2CC(=O)Nc2cc(OC)ccc2OC)cc1,1
16,Cc1ccc(-c2cc(C(=O)Nc3cccc(S(=O)(=O)Nc4nccs4)c3)c3ccccc3n2)cc1C,14
17,O=C(c1nc(-c2cccnc2)c2ccccn12)N1CCN(c2ncccn2)CC1,8.43
18,O=C1CCCC2=C1C1(CCSCC1)N=C(Nc1nc3ccccc3o1)N2,2.3
19,CCOc1ccccc1C(=O)Nc1ccccc1C(=O)Nc1cccc(C(F)(F)F)c1,22.8
20,O=c1c2ccccc2nc(/C=C/c2cccnc2)n1Cc1ccccc1,8.99
21,FC(F)(F)Oc1cccc(Nc2nc(-c3ccncc3)nc3ccccc23)c1,19
22,COc1ccccc1-c1[nH]nc2ncc(-c3ccc(C)cc3)nc12,3
23,COc1ccc(NC(=O)c2[nH]c(C)c(C(C)=O)c2C)cc1S(=O)(=O)N1CCCCCC1,3
24,COc1ccc(C(=O)Nc2nc(-c3ccccc3)cs2)c(OC)c1,18
25,Cn1cnc(-c2nccc3c(=O)[nH]c(OCCCC(F)(F)F)nc23)c1,16.5

row,SMILES,half-life [min]
1,COc1ccc(C(=O)c2sc(Nc3cccc(Cl)c3)nc2N)cc1,5.07
2,CSc1ncc(Cl)c(C(=O)Nc2c(C)cccc2C)n1,5.48
3,O=C1CCc2cc(S(=O)(=O)Nc3ccc(F)c(Cl)c3)c(F)cc2N1,16.8
4,c1cnc(N2CCN(Cc3c[nH]c4ccccc34)CC2)nc1,1.6
5,Cc1ccc(S(=O)(=O)Nc2cc(Cl)cc(C(=O)Nc3nc(-c4ccccc4)cs3)c2)cc1,22
6,Cc1cc(Nc2ccc(Br)c(C)c2)n2nc(C)nc2n1,6.7
7,O=C(O)c1cnc(-c2ccc(F)cc2)nc1-c1ccncc1,> 30
8,O=S(=O)(Nc1nccs1)c1ccc(Nc2nc(-c3ccc(F)cc3)cs2)cc1,> 30
9,O=C(O)c1ccc(O)c2ncc(N3CCCN(CCc4cccc5ccccc45)CC3)cc12,> 30
10,CN1CC=C(c2nc(Nc3ccc(F)c(F)c3)c3ccccc3n2)CC1,3.6
11,CCOc1ccc(CCNC(=O)c2cc3sccc3n2Cc2ccncc2)cc1OCC,1.6
12,Fc1ccc(CNc2nc(-c3ccncc3)nc3ccccc23)cc1F,11
13,COc1ccc(CN2CCNc3cc(Nc4ccccc4)ncc3C2)cc1,3.17
14,CCOc1ccc(CCNC(=O)c2cc3cnccc3n2Cc2cccc(C)c2)cc1OCC,6.9
15,COc1cc(-c2ccnc3c2c(C)nn3-c2ccc(C(F)(F)F)cc2)ccc1O,> 30
16,Cc1ccc2oc3c(c(=O)c2c1)C(c1cccc(O)c1)N(CCCN1CCOCC1)C3=O (centres undefined),9.55
17,COc1ncccc1-c1cc2[nH]ccc2c(C(=O)NCc2c(C)cc(C)[nH]c2=O)n1,5.48
18,O=C1CN(C(=O)CCC(=O)N2CCc3c(nc4cc(-c5ccccc5)[nH]n4c3=O)C2)c2ccccc2N1,> 30
19,COc1cccc(-c2cn3c(n2)sc2cc(C(=O)NCCc4ccc(OC)c(OC)c4)ccc23)c1,2.26
20,CC(=O)c1cccc(-c2csc(N3CCC(C(N)=O)CC3)n2)c1,2.21
21,O=C(Nc1ncc(Cc2ccc(C(F)(F)F)cc2)s1)c1ccc(-c2ccccc2)o1,> 30
22,CC(=O)c1c(C)[nH]c(C(=O)Nc2cccc(S(=O)(=O)Nc3ccc(Br)cc3)c2)c1C,18
23,O=C(Nc1ncnc2sc3c(c12)CCCCC3)c1ccco1,2.3
24,NCC(=O)Nc1cncc(-c2nn3c(=O)cc(N4CCNCC4)nc3s2)c1,> 30
25,COc1cccc(CNc2ccc(S(=O)(=O)Nc3ccc4ccccc4c3)cc2)c1O,10

row,SMILES,half-life [min]
1,CC(C)(C)OC(=O)N[C@@H](Cc1ccc(O[S+](=O)([O-])c2cccc3cnccc23)cc1)C(=O)Nc1ccc(-c2ccccc2)cc1,2.55
2,Cc1ccc(S(=O)(=O)n2cc(C(=O)Nc3ccc(-c4ccccc4)cc3)c3ccccc32)cc1,14
3,COc1ccc(NC(=O)c2cccnc2)cc1S(=O)(=O)Nc1ccc(Br)cc1,21
4,Nc1nc(Nc2ccc(S(N)(=O)=O)cc2)n(C(=S)Nc2c(F)cccc2F)n1,> 30
5,COc1cc(Nc2nc(-c3ccncc3)nc3ccccc23)ccc1F,7.35
6,CC(C)c1ccccc1-c1nc(NCc2ccc(-c3cccnc3)cc2)c2ccccc2n1,9.21
7,CCOC(=O)c1ccc(-n2c(C)cc(-c3nnc4n3CCCCC4)c2C)cc1,2.7
8,Cc1cccc(-c2csc(N3CCC(C(N)=O)CC3)n2)c1,1.66
9,CN1CCN(c2ccc(Nc3nc(-c4ccncc4)nc4ccccc34)cc2F)CC1,8.8
10,COc1cccc(CNc2ccc(S(=O)(=O)Nc3ccccc3)cc2)c1O,6.7
11,COc1cc2nccc(Oc3ccc(NC(=O)Nc4cc(C)on4)c(Cl)c3)c2cc1OC,> 30
12,CN(C(=O)COC(=O)c1csc(NCc2ccccc2)n1)c1ccccc1,1.4
13,COc1ccc(-n2nc(C3CCCN(C(=O)Cc4ccc(F)cc4)C3)[nH]c2=O)cc1 (centres undefined),8.48
14,CC(C)N(CCC(=O)c1ccc2ccccc2c1)Cc1ccccc1,1.65
15,CC(=O)Nc1ccc(N[S+](=O)([O-])c2cccc(NC(=O)c3[nH]c(C)c(C(C)=O)c3C)c2)cc1,> 30
16,COC(=N)c1nc2ccc3ncnc(Nc4ccc(F)cc4Br)c3c2s1,> 30
17,O=C(NCC1(c2nc(-c3ccccc3)cs2)CCOCC1)c1cccc(-c2noc(C(F)(F)F)n2)c1,2.92
18,CCNC(=O)c1noc(-c2cc(C(C)C)c(O)cc2O)c1-c1ccc(CN2CCOCC2)cc1,4.7
19,Nc1ncnc2c1C(=O)N(c1ccc(C3CCC(CC(=O)O)CC3)cc1)CCO2 (centres undefined),> 30
20,COc1ccc(-c2nc(CS(=O)CC(=O)N3CCC4(CC3)OCCO4)c(C)o2)cc1 (centres undefined),> 30
21,O=C(COc1ccccc1)NCC(c1cccs1)S(=O)(=O)c1ccc(Cl)cc1 (centres undefined),1.44
22,COc1ccc(N(C)C(=O)c2cc3c(s2)-c2ccccc2OC3)cc1,7.6
23,CN1CCCN(C(c2ccccc2)c2ccc(Cl)cc2)CC1 (centres undefined),2.89
24,Cc1ccc(S(=O)(=O)N(C)c2ccccc2C(=O)Nc2nc(-c3ccccc3)cs2)cc1,1.7
